For one data set, the system named is CMV. The experiment in a line: In vitro antiviral assay for CMV. It counts as cell-based, cytomegalovirus. The conditions noted are these: Human betaherpesvirus 5, read-out: Antiviral Activities (EC50, μM) CMV. As to the method:
(§1) The antiviral assays for HBV, (Doong et al., 1991, Proc. Natl. Acad. Sci. U.S.A. 88:8495-8499) HSV-1, (Bastow et al., 1983, Antimicrob. Agents Chemother. 23: 914-917) HSV-2, (Bastow et al., 1983, Antimicrob. Agents Chemother. 23:914-917) EBV, (Yao et al., 1993, Antimicrob. Agents Chemother. 37:1420-1425), CMV (Andreoni et al., 2002, J. Med. Virol. 67:33-40) and HIV (Mellors et al., 1992, Mol. Pharmacol. 41: 446-451) were performed according to the previously reported procedures. Anti-HCV activities were tested in Huh-Luc/neo cell line. Cells were seeded into 48-well plates and grown until confluent. Different concentrations of drugs were added into media (DMEM, 10% dFBS) and incubated for 3 days. At the end of 3-day treatment, medium were removed and 50 μl of Passive lysis buffer (Promega) were added. Cell lysate was shaken at room temperature for 15 min. 30 μl/well of cell lysate was transferred to another 96-well plate, 100 μl/well of luciferase activity assay substrate was added into plate and read by a luminometer (Amersham) immediately.

A further data set relates to EBV. The experiment in a line: In vitro antiviral assay for EBV. It counts as cell-based, Epstein-Barr Virus. The note with it: human gammaherpesvirus 4, read-out: Antiviral Activities (EC50, μM) EBV. The procedure: as §1
Another data set relates to HIV. Briefly: In vitro antiviral assay for HIV. In kind it is cell-based, human immunodeficiency virus. The note with it: Human immunodeficiency virus 1, read-out: Antiviral Activities (EC50, μM) HIV, in vitro; (T) after a value means toxic. As to the method:
as §1

For a further data set, the system named is HBV. The experiment in a line: In vitro antiviral assay for HBV (Table 1). It counts as cell-based, Hepatitis B virus. The conditions noted are these: Hepatitis B virus, read-out: Antiviral Activities (EC50, μM) HBV. The procedure:
as §1

The nature of data set [1]: Cell cytotoxicity assay on MT-2 cells. The conditions noted are these: human, read-out: Cytotoxity (ID50, μM) MT-2. In kind it is cell-based. As to the method:
(§2) Cytotoxicities of test compounds on MT-2 (Mellors et al., 1992 Mol. Pharmacol. 41:446-451) and CEM (Grove et al., 1995, Cancer Res. 55:3008-3011) cells were determined according to the previously reported procedures. Hepg2 cells were seeded at a density of 10^4 cells/ml/well in 24-well plates and cultured in MEME supplemented with 10% FBS at 37° C. and 5% CO2. Each test compound at different concentrations was added on the second day of the culture and the cells were incubated for another 3 days. At the end of the incubation period, the medium was removed and 0.5 ml of 0.5% methylene blue in 50% ethanol (v/v) was added to each well and set at room temperature for 30-60 minutes. The methylene blue was removed; the plates were washed with water and allowed to air dry. Once dry, 1% sarcosyl was added to dissolve the stained cell layer. The absorbance at 595 nm was measured with a microplate reader (Molecular Devices Corp. Sunnyvale, Calif.). The cytotoxicity to CEM cell was calculated as described previously (Grove et al., 1995, Cancer Res. 55 (14): 3008-3011).

The nature of data set [2]: Cell cytotoxicity assay on CEM cells. In kind it is cell-based. The conditions noted are these: human, read-out: Cytotoxity (ID50, μM) CEM. As to the method: as §2
The subject of the next data set is HCV. The experiment in a line: Anti-HCV activity in Huh-Luc/neo cell line, luciferase activity after 3-day treatment. It counts as cell-based, Hepatitis C virus. The conditions noted are these: Hepatitis C virus, 72 h, Huh-Luc/neo cells, 3 days; for EC50: given as a bound only, read-out: Antiviral Activities (EC50, μM) HCV; for inhibition at 10 µM: read-out: HCV percent of inhibition. As to the method: as §1

The next data set has as its system HSV-2. The experiment in a line: In vitro antiviral assay for HSV-2. It counts as cell-based, Herpes Simplex Virus 2. The note with it: Human alphaherpesvirus 2, read-out: Antiviral Activities (EC50, μM) HSV-2. The procedure: as §1
Another data set concerns HSV-1. The experiment in a line: In vitro antiviral assay for HSV-1. It counts as cell-based, Herpes Simplex Virus 1. The note with it: Human alphaherpesvirus 1, read-out: Antiviral Activities (EC50, μM) HSV-1. The procedure: as §1

Structures are written as SMILES. A value given as a limit tells only on which side of the number the result lay.

Consider `O=C1OC(=O)c2c1cc1ccc3c(c1c2-c1ccc2c(c1)OCO2)OCO3` [Compound 1, 10-Benzo[1,3]dioxol-5-yl-furo[3′,4′:6,7]naphtho[1,2-d][1,3]dioxole-7,9-dione], for which the EC50 with CMV was 17.6 µM; with EBV it was over 20 µM; in the data set on HIV it was over 100 µM; with HBV, over 10 µM; in the data set on HCV, over 10 µM; in the data set with HSV-2 it was over 50 µM. The 50% effective concentration (EC50) in the data set on HSV-1 is over 50 µM. The IC50 in data set [1] is over 100 µM; in data set [2], over 50 µM.
As for `CC(=O)NN1C(=O)c2cc3ccc4c(c3c(-c3ccc5c(c3)OCO5)c2C1=O)OCO4` [Compound 25, N-(10-Benzo[1,3]dioxol-5-yl-7,9-dioxo-7,9-dihydro-1,3-dioxa-8-aza-dicyclopenta[a,g]naphthalen-8-yl)-acetamide], the melting point was 281 to 283 °C. Moreover, the EC50 in the data set with EBV is over 20 µM. The EC50 in the data set with HIV was over 100 µM. The EC50 in the data set on HBV is over 10 µM. In addition, the IC50 in data set [1] is over 100 µM. Besides, the IC50 in data set [2] is 93 µM. Also, the EC50 in the data set with HCV is over 10 µM. Moreover, in the data set with HSV-2, the EC50 was over 40 µM. The EC50 in the data set on HSV-1 is over 40 µM.
`COC(=O)c1cc2ccc3c(c2c(-c2ccc4c(c2)OCO4)c1C(=O)OC)OCO3` [Compound 30, 9-Benzo[1,3]dioxol-5-yl-naphtho[1,2-d][1,3]dioxole-7,8-dicarboxylic acid dimethyl ester] displayed a melting point of 157 to 159 °C. Moreover, in the data set with EBV, the EC50 was over 20 µM. For the same compound, in the data set on HIV, the EC50 was over 28 µM. Further, in the data set on HBV, the EC50 was over 20 µM. In [1], the IC50 was 28 µM. In addition, the IC50 in [2] was determined as 50 µM. Moreover, in the data set on HCV, the inhibition at 10 µM was determined as 93%. Moreover, in the data set with HSV-2, the EC50 was over 50 µM. Moreover, the EC50 in the data set on HSV-1 was over 50 µM.
For the compound `COC(=O)c1c(C(=O)O)cc2ccc3c(c2c1-c1ccc2c(c1)OCO2)OCO3` [Compound 31, 9-Benzo[1,3]dioxol-5-yl-naphtho[1,2-d][1,3]dioxole-7,8-dicarboxylic acid 8-methyl ester], the melting point lay in the range of 273 to 275 °C. For the same compound, the concentration for a half-maximal effect (EC50) in the data set on EBV was over 20 µM. Further, the concentration for a half-maximal effect (EC50) in the data set with HIV was over 90 µM. Further, in the data set on HBV, the EC50 is over 20 µM. In addition, the IC50 in data set [1] stood at 90 µM. The IC50 in data set [2] is 74 µM. Also, in the data set on HCV, the EC50 was over 10 µM. Also, in the data set with HSV-2, the EC50 is over 50 µM. Further, the EC50 with HSV-1 was over 50 µM.
Turning to `O=C(O)c1cc2ccc3c(c2c(-c2ccc4c(c2)OCO4)c1C(=O)O)OCO3` [Compound 32, 9-Benzo[1,3]dioxol-5-yl-naphtho[1,2-d][1,3]dioxole-7,8-dicarboxylic acid], the melting point is 253 °C (dec.). Besides, the EC50 in the data set on EBV is over 20 µM. In addition, in the data set on HIV, the half-maximal effective concentration (EC50) is over 100 µM. Also, the EC50 in the data set with HBV was over 20 µM. Also, the IC50 in data set [1] was over 100 µM. Besides, in [2], the IC50 was over 100 µM. Also, the EC50 in the data set on HCV is over 10 µM. Further, the EC50 in the data set with HSV-2 was over 50 µM. For the same compound, in the data set on HSV-1, the EC50 was over 50 µM.
`CCOC(=O)c1c(C(=O)OCC)c(-c2ccc3c(c2)OCO3)c2c3c(ccc2c1O)OCO3` [Compound 33, 9-Benzo[1,3]dioxol-5-yl-6-hydroxy-naphtho[1,2-d][1,3]dioxole-7,8-dicarboxylic acid diethyl ester] yielded a melting point of 192 to 194 °C. Moreover, the concentration giving a half-maximal response (EC50) in the data set with EBV was over 10 µM. Moreover, the EC50 in the data set on HIV was over 15 µM. Besides, the EC50 in the data set with HBV is over 10 µM. The IC50 in [1] stood at 15 µM. The IC50 in [2] worked out at 39 µM. The inhibition at 10 µM in the data set with HCV amounted to 62%. In addition, the concentration for a half-maximal effect (EC50) in the data set with HSV-2 is over 50 µM. The EC50 in the data set with HSV-1 was over 50 µM.
As for `O=C1OCc2c1c(-c1ccc3c(c1)OCO3)c1c3c(ccc1c2O)OCO3` [Compound 34, 10-Benzo[1,3]dioxol-5-yl-6-hydroxy-7H-furo[3′,4′:6,7]naphtho[1,2-d][1,3]dioxol-9-one], the melting point was 257 °C (dec.). Besides, the EC50 in the data set on EBV was over 10 µM. Moreover, the EC50 with HIV was over 13 µM. Besides, the half-maximal effective concentration (EC50) in the data set with HBV is over 10 µM. Also, the IC50 in data set [1] amounted to 13 µM. In addition, the IC50 in data set [2] was 31 µM. Also, in the data set with HCV, the EC50 was over 10 µM. Moreover, in the data set on HSV-2, the EC50 came to 28 µM. Moreover, the EC50 in the data set with HSV-1 amounted to 23 µM.
Regarding `O=C1OCc2c1cc1c(Br)cc3c(c1c2-c1ccc2c(c1)OCO2)OCO3` [Compound 38, 10-Benzo[1,3]dioxol-5-yl-5-bromo-9H-furo[3′,4′:6,7]naphtho[1,2-d][1,3]dioxol-7-one], the melting point is 256 °C (dec.). In the data set with EBV, the concentration for a half-maximal effect (EC50) is over 15 µM. For the same compound, the EC50 in the data set on HIV was over 100 µM. Further, the EC50 with HBV is over 60 µM. The IC50 in data set [1] was over 100 µM. For the same compound, in data set [2], the IC50 is 100 µM. For the same compound, the EC50 with HCV was over 10 µM. For the same compound, the EC50 in the data set on HSV-2 was over 50 µM. In the data set with HSV-1, the EC50 is over 50 µM.
Regarding `O=C1OCc2c1cc1c(I)cc3c(c1c2-c1ccc2c(c1)OCO2)OCO3` [Compound 39, 10-Benzo[1,3]dioxol-5-yl-5-iodo-9H-furo[3′,4′:6,7]naphtho[1,2-d][1,3]dioxol-7-one], the melting point is 255 °C (dec.). Also, the EC50 in the data set on EBV is over 10 µM. Moreover, the EC50 with HIV was over 80 µM. In the data set on HBV, the EC50 is over 40 µM. Further, the IC50 in [1] is 80 µM. Moreover, the IC50 in data set [2] worked out at 70 µM. The 50% effective concentration (EC50) in the data set with HCV was over 10 µM. In addition, in the data set with HSV-2, the EC50 is over 25 µM. Besides, the EC50 in the data set with HSV-1 was over 25 µM.
For the compound `O=C1NCc2c1cc1c(Br)cc3c(c1c2-c1ccc2c(c1)OCO2)OCO3` [Compound 40, 10-Benzo[1,3]dioxol-5-yl-5-bromo-8,9-dihydro-1,3-dioxa-8-aza-dicyclopenta[a,g]naphthalen-7-one], the melting point is 285 °C (dec.). The EC50 with EBV is over 20 µM. Further, the EC50 in the data set on HIV is over 54 µM. In addition, the EC50 in the data set with HBV is over 20 µM. Also, in data set [1], the IC50 was determined as 54 µM. The IC50 in [2] was found to be 38 µM. Further, the inhibition at 10 µM with HCV came out at 32%. Moreover, the EC50 in the data set with HSV-2 was over 20 µM. Moreover, in the data set with HSV-1, the concentration giving a half-maximal response (EC50) is 6.5 µM.
As to `O=c1[nH][nH]c(=O)c2c(-c3ccc4c(c3)OCO4)c3c4c(cc(Cl)c3cc12)OCO4` [Compound 41, 11-Benzo[1,3]dioxol-5-yl-5-chloro-8,9-dihydro-1,3-dioxa-8,9-diaza-cyclopenta[a]anthracene-7,10-dione], the melting point is 316 °C (dec.). Besides, in the data set with EBV, the EC50 was over 20 µM. For the same compound, the EC50 in the data set with HIV is over 30 µM. Further, in the data set on HBV, the EC50 was over 10 µM. The IC50 in [1] worked out at 30 µM. Moreover, the IC50 in [2] is over 100 µM. Moreover, the inhibition at 10 µM with HCV was found to be 60%. In addition, the EC50 with HSV-2 is over 40 µM. Besides, the EC50 with HSV-1 is 7 µM.
On to `O=c1[nH][nH]c(=O)c2c(-c3ccc4c(c3)OCO4)c3c4c(cc(I)c3cc12)OCO4` [Compound 43, 11-Benzo[1,3]dioxol-5-yl-5-iodo-8,9-dihydro-1,3-dioxa-8,9-diaza-cyclopenta[a]anthracene-7,10-dione], for which the melting point is 300 °C (dec.). For the same compound, the EC50 in the data set on EBV was over 20 µM. Also, the EC50 with HIV stood at 2 µM. For the same compound, the concentration for a half-maximal effect (EC50) with HBV was over 10 µM. For the same compound, the IC50 in data set [1] came to 35 µM. For the same compound, the IC50 in [2] was 40 µM. The inhibition at 10 µM in the data set with HCV amounted to 52%. For the same compound, the EC50 in the data set on HSV-2 is over 40 µM. Besides, in the data set on HSV-1, the EC50 was over 40 µM.
